What was measured:
[1] = In vitro intrinsic clearance in microsomes (Assay 3), rat; type: in vitro ADME; conditions: pH 7.4; heading: Assay 3 - Microsomal Cl; rat female microsomes, 0.5 uM compound, 0.5 mg/mL protein
Protocol: (§1) Determination of In Vitro Intrinsic Clearance in Microsomes
(§2) NADP regeneration buffer for use in incubations was prepared fresh on the assay day. It contained 7.8 mg glucose-6-phosphate (mono-sodium salt), 1.7 mg NADP and 6 Units glucose-6-phosphate dehydrogenase per 1 mL of 2% sodium bicarbonate. Microsomes (human, female; cynomolgus monkey, female; dog, female; rat, female) were prepared in pH 7.4 phosphate buffer and contained 0.625 mg protein/mL. Unless stated, all subsequent steps were performed by a Tecan Genesis 150/8 RSP. A 1.25 mM stock solution of the compounds was prepared in Acetonitrile/water (1:1). 25 ul of the 1.25 mM stock solution was added to 600 ul of Acetonitrile/water (1:1) to give a 50 uM solution. For each species, the 50 uM solutions (10 uL) were added to microsomes (790 uL) in a microplate (Porvair, 96 deepwell, square).
(§3) 400 uL of the microsomal solution containing the compound was transferred to a microplate (Porvair, 96 deepwell, round) and was pre-warmed at 37° C. for five minutes prior to initiation of incubations. All incubations were initiated by addition of 100 uL of NADP regeneration system to the pre-warmed microsomes. The mixtures were incubated at 37° C. in a Techne heating block. Following 0, 3, 6, 12 and 30 minutes incubation, 20 uL aliquots were taken and added to 100 uL of acetonitrile containing internal standard.
(§4) For determination of the rate of metabolism, incubations were performed at a compound concentration of 0.5 uM and a protein concentration of 0.5 mg/mL. The concentration of solvent in the incubation was 0.5%.
(§5) Test compound concentrations were determined by LC/MS/MS; results were reported as analyte:internal standard peak area ratios.
(§6) The rate of disappearance was calculated by fitting a single exponential decay to the concentration-time curve using Excel and intrinsic clearance was calculated using the following formula: [formula] Results

[2] = In vitro intrinsic clearance in microsomes (Assay 3), dog; type: in vitro ADME; conditions: pH 7.4; heading: Assay 3 - Microsomal Cl; dog female microsomes, 0.5 uM compound, 0.5 mg/mL protein
Protocol: as §1, §2, §3, §4, §5, §6

[3] = In vitro intrinsic clearance in microsomes (Assay 3), cynomolgus monkey; type: in vitro ADME; conditions: pH 7.4; heading: Assay 3 - Microsomal Cl, Cyno; cynomolgus monkey female microsomes, 0.5 uM compound, 0.5 mg/mL protein
Protocol: as §1, §2, §3, §4, §5, §6

[4] = In vitro intrinsic clearance in microsomes (Assay 3), human; type: in vitro ADME; conditions: pH 7.4; heading: Assay 3 - Microsomal Cl; human female microsomes, 0.5 uM compound, 0.5 mg/mL protein
Protocol: as §1, §2, §3, §4, §5, §6

[5] = target: T1, recombinant human Oxytocin-1 (hOT) receptor (Homo sapiens, UniProt P30559); assay: Determination of antagonist affinity at human Oxytocin-1 receptors using FLIPR (Assay 1); type: cell-based; conditions: CHO-hOT cells, FLIPR calcium response, oxytocin at EC80; read-out: fpki (Assay 1)
T1 construct: expressed in transfected cells
T1 sequence (P30559 1-389): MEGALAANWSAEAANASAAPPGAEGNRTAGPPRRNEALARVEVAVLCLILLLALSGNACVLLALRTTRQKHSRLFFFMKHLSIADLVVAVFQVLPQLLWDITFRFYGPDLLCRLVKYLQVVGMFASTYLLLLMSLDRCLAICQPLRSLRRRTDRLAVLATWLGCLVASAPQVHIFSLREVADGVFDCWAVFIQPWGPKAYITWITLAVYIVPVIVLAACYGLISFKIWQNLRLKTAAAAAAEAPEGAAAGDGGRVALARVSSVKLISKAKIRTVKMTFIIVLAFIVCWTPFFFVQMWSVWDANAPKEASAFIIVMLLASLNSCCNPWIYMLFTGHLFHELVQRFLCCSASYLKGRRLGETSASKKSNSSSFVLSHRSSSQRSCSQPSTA
Protocol: Determination of Antagonist Affinity at Human Oxytocin-1 Receptors using FLIPR
Adherent Chinese Hamster Ovary (CHO) cells, stably expressing the recombinant human Oxytocin-1 (hOT) receptor, were maintained in culture in DMEM:F12 medium (Sigma, cat no D6421), supplemented with 10% heat inactivated foetal calf serum (Gibco/lnvitrogen, cat. no.01000-147), 2 mM L-glutamine (Gibco/lnvitrogen, cat. no. 25030-024) and 0.2 mg/ml G418 (Gibco/lnvitrogen, cat no. 10131-027). Cells were grown as monolayers under 95%:5% air:CO2 at 37° C. and passaged every 3-4 days using TrypLE™ Express (Gibco/lnvitrogen, cat no. 12604-013).
Measurement of [Ca^2+]1 using the FLIPR™
CHO-hOT cells were seeded into black walled clear-base 384-well plates (Nunc) at a density of 10,000 cells per well in culture medium as described above and maintained overnight (95%:5% air:CO2 at 37° C.). After removal of culture medium, cells were incubated for 1 h at 37° C. in Tyrode's medium (NaCl, 145 mM; KCl, 2.5 mM; HEPES, 10 mM; Glucose, 10 mM; MgCl2, 1.2 mM; CaCl2, 1.5 mM) containing probenacid (0.7 mg/ml), the cytoplasmic calcium indicator, Fluo-4 (4 uM; Teflabs, USA) and the quenching agent Brilliant Black (250 uM; Molecular Devices, UK). Cells were then incubated for an additional 30min at 37° C. with either buffer alone or buffer containing OT antagonist, before being placed into a FLIPR™ (Molecular Devices, UK) to monitor cell fluorescence (λex=488 nm, λEM=540 nm) before and after the addition of a submaximal concentration of oxytocin (EC80).
Functional responses using FLIPR were analysed using Activity Base Version 5.0.10.

[6] = target: T2, human recombinant oxytocin receptors (Homo sapiens, UniProt P30559); assay: Oxytocin binding assay, [3H]-oxytocin competition on CHO membranes (Assay 2); conditions: ~2.4 nM [3H]-oxytocin, Cheng-Prusoff, read-out: pKi (Assay 2) (converted)
T2 construct: expressed in transfected cells; host or cells: CHO cells (membrane preparation)
T2 sequence (P30559 1-389): T1 sequence (P30559 1-389)
Protocol: Membranes were prepared from CHO cells expressing human recombinant oxytocin receptors. The membrane preparation was frozen in aliquots at −70° C. until used.
Membranes (˜50 ug) were incubated in 200 ul of assay buffer (50 mM Tris, 10 mM MgCl2, and 0.1% bovine serum albumin, pH 7.5) containing ˜2.4 nM of [3H]-oxytocin in the absence (total binding) or presence (non-specific binding) of 1 uM unlabeled oxytocin and increasing concentrations of the compounds in Examples 1 and 2 or comparator compounds. Incubations were performed at room temperature for 60 minutes. The reactions were stopped with 3 ml of ice cold buffer and filtered through Whatman GF/C filter paper presoaked in 0.3% polyethylenimine. The filters were washed 4 times with 3 ml buffer using a Brandel cell harvester. The filters were counted in 3 ml Ready Safe scintillation fluid (Beckman).
Specific binding represented approximately 90% of total binding.
IC50 values were determined from competition binding experiments using non-linear regression analysis (GraphPad) and converted to Ki using the method of Cheng and Prusoff, 1974. Data are reported as mean values.

Row | microsomal CLint at 0.5 uM [1] [mL/min/g] | microsomal CLint at 0.5 uM [2] [mL/min/g] | microsomal CLint at 0.5 uM [3] [mL/min/g] | microsomal CLint at 0.5 uM [4] [mL/min/g] | Ki [5] [nM] | Ki [6] [nM] | Compound
1 | 9 to 15 | 16 to 20 | > 31 | > 31 |  |  | CC(C)C[C@@H]1C(=O)N[C@H](C2Cc3ccccc3C2)C(=O)N1[C@@H](C(=O)N(C)C)c1ccc2[nH]ncc2c1 [Comparator compound X, (2R)-2-[(3R,6R)-3-(2,3-dihydro-1H-inden-2-yl)-6-isobutyl-2,5-dioxopiperazin-1-yl]-2-(1H-indazol-5-yl)-N,N-dimethylethanamide, reference compound]
2 | 1 to 8 | 1 to 8 | 21 to 30 | 16 to 20 | 2 to 3.16 | 0.0398 to 0.126 | CC(C)C[C@@H]1C(=O)N[C@H](C2Cc3ccccc3C2)C(=O)N1[C@@H](C(=O)N(C)C)c1ccc(F)cc1F [Comparator compound Y, (2R)-2-(2,4-difluorophenyl)-2-[(3R,6R)-3-(2,3-dihydro-1H-inden-2-yl)-6-isobutyl-2,5-dioxopiperazin-1-yl]-N,N-dimethylethanamide, reference compound]
3 | 1 to 8 | 1 to 8 | 9 to 15 | 1 to 8 | 2 to 3.16 | 0.0398 to 0.126 | CC[C@H](C)[C@@H]1C(=O)N[C@H](C2Cc3ccccc3C2)C(=O)N1[C@@H](C(=O)NC)c1ccc2c(cnn2C)c1 [Example 1, (2R)-2-{(3R,6R)-3-(2,3-Dihydro-1H-inden-2-yl)-6-[(1S)-1-methylpropyl]-2,5-dioxo-1-piperazinyl}-N-methyl-2-(1-methyl-1H-indazol-5-yl)ethanamide]
4 | 1 to 8 | 1 to 8 | 9 to 15 | 1 to 8 | 2 to 3.16 | 0.0398 to 0.126 | CC[C@H](C)[C@@H]1C(=O)N[C@H](C2Cc3ccccc3C2)C(=O)N1[C@@H](C(=O)N(C)C)c1ccc2c(cnn2C)c1 [Example 2, (2R)-2-{(3R,6R)-3-(2,3-Dihydro-1H-inden-2-yl)-6-[(1S)-1-methylpropyl]-2,5-dioxo-1-piperazinyl}-N,N-dimethyl-2-(1-methyl-1H-indazol-5-yl)ethanamide]
